Values joined by “and” are separate entries in the source; they are usually repeats but may differ in a detail not shown here. Equal entries are not always repeated. Toxic doses and inconclusive results are not listed. No stated cut-off is given here; in the data, active means T/C of 150% or more; inactive means T/C below 125%.
System: L1210 leukemia ip in BDF1 mice, survival T/C
Test: NCI In Vivo Anticancer Drug Screen. Data for tumor model L1210 Leukemia (intraperitoneal) in B6D2F1 (BDF1) mice
Details: endpoint: mean survival time, higher = longer survival
Procedure, shortened: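 Tumor cells were implanted, animals were treated, and survival was followed. The result divides the treated measurement by the vehicle-control measurement.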

[1] = dose: 100.0 mg/kg/injection, schedule: Q01DX009 (ip), vehicle: Klucel (hydroxypropylcellulose) (HPC)
[2] = dose: 100.0 mg/kg/injection, schedule: Q04DX003 (ip), vehicle: Klucel (hydroxypropylcellulose) (HPC)
[3] = dose: 200.0 mg/kg/injection, schedule: Q01DX009 (ip), vehicle: Klucel (hydroxypropylcellulose) (HPC)
[4] = dose: 200.0 mg/kg/injection, schedule: Q04DX003 (ip), vehicle: Klucel (hydroxypropylcellulose) (HPC)
[5] = dose: 400.0 mg/kg/injection, schedule: Q01DX009 (ip), vehicle: Klucel (hydroxypropylcellulose) (HPC)
[6] = dose: 400.0 mg/kg/injection, schedule: Q04DX003 (ip), vehicle: Klucel (hydroxypropylcellulose) (HPC)
[7] = dose: 12.5 mg/kg/injection, schedule: Q04DX003 (ip), vehicle: saline
[8] = dose: 200.0 mg/kg/injection, schedule: Q04DX003 (ip), vehicle: saline with Tween-80
[9] = dose: 25.0 mg/kg/injection, schedule: Q04DX003 (ip), vehicle: saline
[10] = dose: 50.0 mg/kg/injection, schedule: Q04DX003 (ip), vehicle: saline
[11] = dose: 100.0 mg/kg/injection, schedule: Q01DX001 (ip), vehicle: saline
[12] = dose: 200.0 mg/kg/injection, schedule: Q01DX001 (ip), vehicle: saline
[13] = dose: 400.0 mg/kg/injection, schedule: Q01DX001 (ip), vehicle: saline
[14] = dose: 100.0 mg/kg/injection, schedule: Q01DX001 (ip), vehicle: Klucel (hydroxypropylcellulose) (HPC)
[15] = dose: 200.0 mg/kg/injection, schedule: Q01DX001 (ip), vehicle: Klucel (hydroxypropylcellulose) (HPC)
[16] = dose: 100.0 mg/kg/injection, schedule: Q04DX002 (ip), vehicle: Klucel (hydroxypropylcellulose) (HPC)
[17] = dose: 200.0 mg/kg/injection, schedule: Q04DX002 (ip), vehicle: Klucel (hydroxypropylcellulose) (HPC)
[18] = dose: 400.0 mg/kg/injection, schedule: Q04DX002 (ip), vehicle: Klucel (hydroxypropylcellulose) (HPC)
[19] = dose: 100.0 mg/kg/injection, schedule: Q01DX009 (ip), vehicle: saline
[20] = dose: 100.0 mg/kg/injection, schedule: Q04DX003 (ip), vehicle: saline with Tween-80

Measured: T/C

CCc1ccccc1NC(=O)C(c1ccccc1)c1ccccc1
inactive: [1] 100 % of control | [2] 100 % of control | [3] 105 % of control | [4] 93 % of control | [5] 96 % of control | [6] 90 % of control

O=c1o[nH]c(-c2ccccc2)c1-c1ccccc1
inactive: dose: 1.56 mg/kg/injection, schedule: Q04DX003 (ip), vehicle: saline 98 % of control | dose: 3.12 mg/kg/injection, schedule: Q04DX003 (ip), vehicle: saline 102 % of control | dose: 6.25 mg/kg/injection, schedule: Q04DX003 (ip), vehicle: saline 102 % of control | [7] 94 % of control | [8] 93 % of control

C=COc1c(Cl)cc(Cl)cc1Cl
inactive: dose: 100.0 mg/kg/injection, schedule: Q01DX009 (ip), vehicle: saline with Tween-80 93 % of control and 101 % of control | dose: 100.0 mg/kg/injection, schedule: Q04DX002 (ip), vehicle: saline with Tween-80 105 % of control and 107 % of control | dose: 200.0 mg/kg/injection, schedule: Q01DX009 (ip), vehicle: saline with Tween-80 101 % of control and 102 % of control | dose: 200.0 mg/kg/injection, schedule: Q04DX002 (ip), vehicle: saline with Tween-80 97 % of control and 98 % of control | dose: 400.0 mg/kg/injection, schedule: Q01DX009 (ip), vehicle: saline with Tween-80 100 % of control and 104 % of control | dose: 400.0 mg/kg/injection, schedule: Q04DX002 (ip), vehicle: saline with Tween-80 94 % of control and 101 % of control

COc1ccc(N=C(C(=Nc2ccc(OC)cc2)c2ccccc2)c2ccccc2)cc1
inactive: [1] 94 % of control | [2] 96 % of control | [3] 95 % of control | [4] 95 % of control | [5] 100 % of control | [6] 95 % of control

O=C(O)c1ccccc1C(=O)c1cccc2ccccc12
inactive: dose: 100.0 mg/kg/injection, schedule: Q04DX002 (ip), vehicle: gum acacia 102 % of control | dose: 200.0 mg/kg/injection, schedule: Q04DX002 (ip), vehicle: gum acacia 104 % of control | dose: 400.0 mg/kg/injection, schedule: Q04DX002 (ip), vehicle: gum acacia 95 % of control

COc1ccccc1OCC(O)COc1ccccc1OC
inactive: dose: 12.5 mg/kg/injection, schedule: Q01DX009 (ip), vehicle: saline with Tween-80 92 % of control | [7] 106 % of control | dose: 25.0 mg/kg/injection, schedule: Q01DX009 (ip), vehicle: saline with Tween-80 95 % of control | [9] 105 % of control | dose: 50.0 mg/kg/injection, schedule: Q01DX009 (ip), vehicle: saline with Tween-80 94 % of control | [10] 105 % of control | [11] 104 % of control | [12] 100 % of control | [13] 102 % of control

CCCC(C(O)CC)[N+](=O)[O-] (stereo unspecified)
inactive: [14] 95 % of control | [15] 97 % of control | dose: 400.0 mg/kg/injection, schedule: Q01DX001 (ip), vehicle: Klucel (hydroxypropylcellulose) (HPC) 101 % of control

CCCCCCCCCCCCCCCCCCOC(=O)c1ccco1
inactive: dose: 100.0 mg/kg/injection, schedule: Q01DX001 (ip), vehicle: other 96 % of control | dose: 200.0 mg/kg/injection, schedule: Q01DX001 (ip), vehicle: other 105 % of control | dose: 400.0 mg/kg/injection, schedule: Q01DX001 (ip), vehicle: other 92 % of control

Cn1/c(=N/N=C(N)N)ccc2ccccc21
inactive: dose: 15.0 mg/kg/injection, schedule: Q01DX Z (ip), vehicle: methylcellulose (MC) 100 % of control | dose: 30.0 mg/kg/injection, schedule: Q01DX Z (ip), vehicle: methylcellulose (MC) 108 % of control | dose: 30.0 mg/kg/injection, schedule: Q01DX Z (oral), vehicle: methylcellulose (MC) 95 % of control | dose: 60.0 mg/kg/injection, schedule: Q01DX Z (ip), vehicle: methylcellulose (MC) 107 % of control | dose: 60.0 mg/kg/injection, schedule: Q01DX Z (oral), vehicle: methylcellulose (MC) 101 % of control | dose: 120.0 mg/kg/injection, schedule: Q01DX Z (ip), vehicle: methylcellulose (MC) 103 % of control | dose: 120.0 mg/kg/injection, schedule: Q01DX Z (oral), vehicle: methylcellulose (MC) 97 % of control | dose: 240.0 mg/kg/injection, schedule: Q01DX Z (ip), vehicle: methylcellulose (MC) 98 % of control | dose: 240.0 mg/kg/injection, schedule: Q01DX Z (oral), vehicle: methylcellulose (MC) 95 % of control | dose: 375.0 mg/kg/injection, schedule: Q01DX Z (oral), vehicle: methylcellulose (MC) 95 % of control

CC(C)N=Cc1ccccc1O.CC(C)N=Cc1ccccc1O.[Co]
inactive: dose: 100.0 mg/kg/injection, schedule: Q01DX009 (ip), vehicle: saline sonified 108 % of control | [2] 103 % of control | dose: 200.0 mg/kg/injection, schedule: Q01DX009 (ip), vehicle: saline sonified 100 % of control | [4] 99 % of control | [6] 100 % of control

Cc1ccc(S(=O)(=O)N(Cc2cccc([N+](=O)[O-])c2)c2ccc(C(=O)O)cc2)cc1
inactive: [16] 91 % of control | [17] 98 % of control | [18] 102 % of control

CCOP(=O)(Nc1cc2c(cc1Cl)-c1ccccc1C2=O)OCC
inactive: dose: 100.0 mg/kg/injection, schedule: Q01DX001 (ip), vehicle: carboxymethylcellulose (CMC) 99 % of control | dose: 200.0 mg/kg/injection, schedule: Q01DX001 (ip), vehicle: carboxymethylcellulose (CMC) 89 % of control | dose: 400.0 mg/kg/injection, schedule: Q01DX001 (ip), vehicle: carboxymethylcellulose (CMC) 91 % of control

O=C(O)C/C1=C/CCCCCC1
inactive: [11] 96 % of control | [19] 96 % of control | [12] 92 % of control | dose: 200.0 mg/kg/injection, schedule: Q01DX009 (ip), vehicle: saline 96 % of control | [13] 101 % of control | dose: 400.0 mg/kg/injection, schedule: Q01DX009 (ip), vehicle: saline 93 % of control

CN(C)c1ccc(/C=N/NC(=O)c2cccc3ccccc23)c(Cl)c1
inactive: [13] 90 % of control

COc1ccc2c(c1)CC1c3[nH]c4ccccc4c3CCN1C2 (stereo unspecified)
inactive: [14] 94 % of control | [15] 92 % of control

COc1cc(/C=C2\C=Nc3ccccc32)ccc1O
inactive: [16] 97 % of control | [17] 105 % of control | [18] 102 % of control

C[N+](C)(C)CCCCCC[N+](C)(C)C
inactive: dose: 25.0 mg/kg/injection, schedule: Q01DX009 (ip), vehicle: saline 102 % of control | [9] 108 % of control | dose: 50.0 mg/kg/injection, schedule: Q01DX009 (ip), vehicle: saline 104 % of control | [10] 97 % of control | [19] 96 % of control | dose: 100.0 mg/kg/injection, schedule: Q04DX003 (ip), vehicle: saline 94 % of control and 89 % of control

CN(C)NC(=O)C(c1ccccc1)c1ccccc1
inactive: dose: 25.0 mg/kg/injection, schedule: Q04DX003 (ip), vehicle: saline with Tween-80 100 % of control | dose: 50.0 mg/kg/injection, schedule: Q04DX003 (ip), vehicle: saline with Tween-80 97 % of control | [20] 92 % of control and 97 % of control

COc1cc(N(CCl)CCl)ccc1NC(=O)c1ccccc1
inactive: [2] 111 % of control | [4] 105 % of control | [6] 111 % of control

O=C(c1ccccc1)c1c2ccccc2c(-c2ccccc2)c2ccccc12
inactive: [1] 101 % of control | [2] 92 % of control | [3] 103 % of control | [4] 89 % of control | [5] 92 % of control | [6] 90 % of control

CC1=CC(=O)N(CCl)C1=O
inactive: [20] 102 % of control | [8] 94 % of control

CC(O)C[P+](c1ccccc1)(c1ccccc1)c1ccccc1 (stereo unspecified)
inactive: [11] 110 % of control | [12] 96 % of control
